Reference: patent US5175166A, “Muscarinic agonists” (The University of Toledo, priority 1991, dated 1992)
Counter-ions that a name gives are not always drawn.

Columns and labels:
[1] = target: muscarinic receptors; assay: Binding to muscarinic receptors, competition with [3H]-QNB (rat brain membranes); settings: for IC50: 50 pM [3H]-QNB, rat brain membranes, pH 7.4, 2.0 hr room temperature, mean of three experiments; for binding to muscarinic receptors (in words): qualitative statement
[2] = target: T1, M1 receptors (Rattus norvegicus, UniProt P08482); assay: Binding, competition with 3H-pirenzepine (3H-PZ) (rat brain membranes); settings: 1 nM 3H-pirenzepine, 1 hr room temperature, mean of three experiments
T1 sequence (P08482 1-460): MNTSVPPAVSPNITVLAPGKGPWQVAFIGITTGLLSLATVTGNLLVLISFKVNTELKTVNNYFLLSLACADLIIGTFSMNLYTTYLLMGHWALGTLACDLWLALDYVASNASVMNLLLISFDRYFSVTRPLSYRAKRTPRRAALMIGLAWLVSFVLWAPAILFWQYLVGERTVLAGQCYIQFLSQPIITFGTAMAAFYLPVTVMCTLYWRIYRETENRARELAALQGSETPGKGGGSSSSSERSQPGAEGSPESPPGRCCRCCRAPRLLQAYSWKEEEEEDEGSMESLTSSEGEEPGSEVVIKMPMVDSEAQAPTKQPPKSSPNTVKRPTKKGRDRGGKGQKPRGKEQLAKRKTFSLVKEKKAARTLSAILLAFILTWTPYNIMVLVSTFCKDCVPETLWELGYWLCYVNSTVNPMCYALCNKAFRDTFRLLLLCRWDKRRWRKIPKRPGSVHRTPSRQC
Description: (§1) Other binding was determined indirectly by the ability of compounds to compete with 1 nM ^3 H-pirenzepine (^3 H--PZ), or 3 nM ^3 H-oxotremorine M (^3 H--OXO--M) in a suspension of brain membranes. Each sample contained approximately 0.1 mg/ml protein for ^3 H--OXO--M in 20 mM Tris-Cl buffer with 1 mM MnCl2 and varying concentrations of compound in a final volume of […]. Samples were incubated 1 hr. for ^3 H--PZ, and 15 minutes for ^3 H--OXO--M at room temperature and then filtered through glass fiber filters using a Brandell cell harvester adapted for receptor binding work and the filters were washed twice with two 5-ml portions of cold buffer. Nonspecific binding was evaluated by the inclusion of excess atropine in a separate set of samples. IC50 values were determined from Hill plots of the inhibition data and are reported as means of three independent experiments each performed in triplicate.
(§2) Rats were killed by cervical dislocation and their brains rapidly removed. Tissue was homogenized in 9 vol. (w/v) of a 40 mM sodium-potassium phosphate buffer solution (pH 7.4) buffer solution with a Brinkman Polytron homogenizer five times for 10 sec at 5 sec intervals. The crude homogenate was subjected to centrifugation for 10 min at 1000×g, the supernatant saved, and the pellet resuspended in 9 vol. (w/v) of homogenization buffer and spun for another 10 min at 1000×g. The supernatants were combined and spun again for 30 min at 17,500×g. The resultant pellet was resuspended by homogenization in a Teflon-glass homogenizer in 10 vol. of buffer, and washed by centrifugation at 17,500×g for 30 min. The final pellet was resuspended by hand homogenization with a Teflon and glass homogenizer in buffer. The suspension was then divided into several portions and stored at -70° C.
(§3) In the table, ^3 H-QNB indicates general binding to muscarinic receptors and the lower the number, the higher is the potency. ^3 H-PZ indicates binding to muscarinic receptors and a preference for M1 receptors involved in memory and cognition. The lower the number for ^3 H-PZ the higher the potencies; the same is true for ^3 H--OXO--M which indicates agonist binding. In general, the higher the ratio of the value for ^3 H--PZ to the value for ^3 H--OXO--M the better is the agonistic characteristic.

[3] = target: muscarinic receptors; assay: Binding, competition with 3H-oxotremorine M (3H-OXO-M), agonist binding (rat brain membranes); settings: 3 nM 3H-oxotremorine M, 15 minutes room temperature, mean of three experiments
Description: as §1, §2, §3

[4] = tested on: M1 receptors; assay: Phosphoinositide turnover in the hippocampus (brain slices); type: cell-based, Male Long Evans rats; settings: Rattus norvegicus, read-out: Phosphoinositide turnover in the hippocampus, maximal % response above baseline; for activation at 100 µM / activation at 50 µM: hippocampus
Description: The slices were gently agitated at 37° C. in a shaking water bath for 45 min with three changes to buffer. […] The samples were mixed with vigorous shaking and spun at 1000×g for 10 min to separate organic and aqueous phases. […] Briefly, […] anion-exchange SEP-PAK's (Waters Associates) cartridges were converted into the formate form by washing first with 10 ml of a solution of 1.0 M-ammonium formate in 0.1 M-formic acid, followed by 20 ml of distilled water. The sample loading and solution delivery were performed by using disposable plastic syringes; an approximate flow rate of 10-15 ml/min was maintained. […] The entire amount was loaded on to the […] anion-exchange SEP-PAK cartridge. […] Phosphoinositide turnover in the hippocampus indicates a biological response in an area of the brain where M1 receptors predominate. Higher numbers indicate greater efficacy and selectivity at M1 receptors.

[5] = tested on: muscarinic receptors; assay: Phosphoinositide (PI) response / inositol phosphate formation in brain slices (region not stated); type: cell-based, Male Long Evans rats; settings: qualitative statement
Description: The slices were gently agitated at 37° C. in a shaking water bath for 45 min with three changes to buffer.
The sample loading and solution delivery were performed by using disposable plastic syringes; an approximate flow rate of 10-15 ml/min was maintained.

[6] = tested on: muscarinic receptors linked to M1, M3, M5 receptors; assay: PI Cortex: phosphoinositide turnover in the cortex (brain slices); type: cell-based, Male Long Evans rats; settings: Rattus norvegicus, read-out: PI Cortex, maximal % response above baseline
Description: Male Long Evans rats (200-300 g) were decapitated and their brains were rapidly removed and dissected according to the method of Glowinski and Iversen. […] The slices were gently agitated at 37° C. in a shaking water bath for 45 min with three changes to buffer.
Immediately before each experiment, [^3 H] inositol was purified by drying under Nz and passing a portion through a 1-ml column of Dowex AGl-X8 (formate form) to remove contaminants. […] Aliquots (25 microliters) of tissue slices were pipetted into flat-bottomed Beckman-biovials (5-ml capacity) containing 0.3 mM [^3 H]-inositol (15 Ci/mmol) and 10 mM LiCl in 245 microliters of buffer. The vials were then gassed, capped and incubated at 37° C. in a shaking water bath for 30 min. At the end of 30 min, agonist (or buffer for the determination of basal levels) was then added (30 microliters), and the incubation continued for an additional 45 min. The 45 -min incubation period was selected on the basis of the time course of labeled inositol phosphates ([^3 H]-IP's) accumulation under these conditions. The incubations were stopped by the addition of 0.94 ml of CHCl3 /MeOH (1:2, V/V) followed by 0.31 ml of CHCl3 and 0.31 ml of H2 O. The samples were mixed with vigorous shaking and spun at 1000×g for 10 min to separate organic and aqueous phases. Aliquots (750 microliter) of the upper aqueous phase were removed for determination of [^3 H]-IP's. In some cases 200 ml aliquots of the organic phase were removed, dried overnight and counted in 5 ml of scintillant (Amersham) for determination of [^3 H]-inositol incorporation into phospholipids.
Briefly, ACCELL QMA anion-exchange SEP-PAK's (Waters Associates) cartridges were converted into the formate form by washing first with 10 ml of a solution of 1.0 M-ammonium formate in 0.1 M-formic acid, followed by 20 ml of distilled water. The sample loading and solution delivery were performed by using disposable plastic syringes; an approximate flow rate of 10-15 ml/min was maintained. Total [^3 H]-IP's were determined by the "batch" method in which 750 microliter aliquots of the aqueous phase obtained as described above was diluted to 3 ml with distilled water. The entire amount was loaded on to the ACCELL QMA anion-exchange SEP-PAK cartridge. The cartridge was then washed with 10 ml of distilled water, followed by 5 mM-disodium tetraborate. Radiolabeled IP's were then eluted with 1 ml of 0.6 M-ammonium formate/0.06 M formic acid/5 mM-disodium tetraborate (pH 4.75) and 0.50 ml of this eluate was counted in 5 ml of aqueous counting scintillant.

Compound	IC50 [1] [nM]	binding to muscarinic receptors (in words) [1]	IC50 [2] [nM]	IC50 [3] [nM]	activation at 100 µM [4] [%]	PI response (in words) [5]	activation at 100 µM [6] [%]	activation at 50 µM [4] [%]	activation at 1000 µM ([6]; dose 1 mM) [%]	activation at 1000 µM [4] [%]
CC(=O)OC1CN=CNC1.Cl (centres unmarked) [Example 10, 5-Acetoxy-1,4,5,6-tetrahydropyrimidine HCl]	31600	acceptable binding data	10000	640	70	efficacious with respect to the PI response	–	–	–	–
O=C(OCc1ccccc1)C1CN=CNC1 (centres unmarked) [Example 5, Benzyl 1,4,5,6-Tetrahydropyrimidine-5-carboxylate Hydrochloride]	~1000	–	1260	1090	–	–	3.5	–	–	–
CC(=O)OC1CN=C(C)NC1 (centres unmarked) [Example 19, 2-methyl-5-acetoxy-1,4,5,6-tetrahydropyrimidine]	100000	extremely poor binding to muscarinic receptors	> 10000	> 10000	–	virtually no PI response	–	0	–	–
C#CCOC(=O)C1CN=CNC1 (centres unmarked) [Example 6, Propynyl 1,4,5,6-Tetrahydropyrimidine-5-carboxylate Hydrochloride]	1900	–	–	–	–	–	230	–	–	–
COC(=O)C1CCCN=C1N (centres unmarked) [Example 15, 2-amino-3-methoxycarbonyl-3,4,5,6-tetrahydropyridine HCl]	83000	–	13000	> 10000	–	–	-5.5	–	–	–
CCOC(=O)C1CN=CNC1 (centres unmarked) [Example 2, 1,4,5,6-Tetrahydro-5-ethoxycarbonylpyrimidine Hydrochloride]	1900	–	–	160	–	–	150	–	–	–
CC(C)OC(=O)C1CN=CNC1 (centres unmarked) [Example 4, Isopropyl 1,4,5,6-Tetrahydropyrimidine-5-carboxylate Hydrochloride]	3500	–	–	1760	–	–	7.2	–	–	–
Cc1noc(C2CN=CNC2)n1 (centres unmarked) [Example 9, 1,4,5,6-Tetrahydro-5-(3-methyl-1,2,4-oxadiazol-5-yl)pyrimidine trifluoroacetate]	2000	–	–	26	704	–	700	–	–	–
COC(=O)C1CCCC(N)=N1 (centres unmarked) [Example 17, 2-Amino-6-methoxycarbonyl-3,4,5,6-tetrahydropyridine HCL]	130000	–	> 10000	> 10000	–	–	5.9	–	–	–
COC(=O)C1=CNCN(C)C1 [Example 11, 1-Methyl-5-methoxycarbonyl-1,2,3,6-tetrahydropyrimidine HCl]	25100	–	15000	2400	–	–	–	–	182	–
CC(=O)OC1CN=C(C(F)(F)F)NC1.Cl (centres unmarked) [Example 18, 5-Acetoxy-2-trifluoromethyl-1,4,5,6-tetrahydropyrimidine HCl]	8700	–	> 10000	> 10000	–	no PI response	–	0	–	–
COC(=O)C1CN=CNC1 (centres unmarked) [Example 1, 1,4,5,6-Tetrahydro-5-methoxycarbonylpyrimidine Hydrobromide]	–	–	–	90	–	–	131	–	–	237
CCCOC(=O)C1CN=CNC1 (centres unmarked) [Example 3, n-Propyl 1,4,5,6-Tetrahydropyrimidine-5-carboxylate Hydrochloride]	2100	–	1330	1080	–	–	7.1	–	–	–
COC(=O)C1CCC(N)=NC1.Cl (centres unmarked) [Example 14, 2-Amino-5-methoxycarbonyl-3,4,5,6-tetrahydropyridine HCl]	7300	–	770	114	–	unexpectedly superior PI response	265	–	–	–
COC(=O)C1CCN=C(N)C1 (centres unmarked) [Example 16, 2-Amino-4-methoxycarbonyl-3,4,5,6-tetrahydropyridine HCL]	130000	–	–	–	–	–	9	–	–	–
